Test results reported in BindingDB's records for doi:10.1016/j.ejmech.2012.08.033 (2012).

Each molecule was assayed against Casein kinase I isoform alpha (Homo sapiens, UniProt P48729) (assay: Inhibition of CK1 after 30 mins by liquid scintillation counter).
Sequence of Casein kinase I isoform alpha (P48729 whole entry, canonical isoform): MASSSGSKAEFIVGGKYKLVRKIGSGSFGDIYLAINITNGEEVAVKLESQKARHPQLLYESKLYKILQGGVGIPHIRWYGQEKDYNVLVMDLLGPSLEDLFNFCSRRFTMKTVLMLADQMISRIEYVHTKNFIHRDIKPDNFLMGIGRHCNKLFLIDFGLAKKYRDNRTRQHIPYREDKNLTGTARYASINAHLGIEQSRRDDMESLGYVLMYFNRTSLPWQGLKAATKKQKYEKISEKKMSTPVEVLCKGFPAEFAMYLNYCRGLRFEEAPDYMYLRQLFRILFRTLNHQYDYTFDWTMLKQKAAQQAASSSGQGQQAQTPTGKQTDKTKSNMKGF

Row | IC50 [nM] | SMILES
1 | 180 | CC(C)n1cnc2c(NCc3ccc(-c4ccccn4)cc3)nc(NC[C@@H](O)CO)nc21
2 | 390 | CC(C)n1cnc2c(NCc3ccc(-c4ccccn4)cc3)nc(N3C[C@H](O)C[C@H]3CO)nc21
3 | 660 | CC(C)n1cnc2c(NCc3ccc(-c4ccccn4)cc3)nc(NCC[C@H](O)CO)nc21
4 | 150 | CC(C)[C@H](N)C(=O)OC[C@H](O)CNc1nc(NCc2ccc(-c3ccccn3)cc2)c2ncn(C(C)C)c2n1
